According to patent publication US9801973B1, “Peptide having zirconia-binding capacity” (SEOUL NATIONAL UNIVERSITY R&DB FOUNDATION, priority 2015, dated 2017):

Key:
[1] = binding assay using an avidin-biotin complex (binding affinity of zirconia-binding peptide); conditions: biotin-labeled peptide, 100 nM to 1 μM, room temperature 15 hours
Excerpt: (§1) In order to examine the binding affinities of the peptides synthesized in Example 1 and Comparative Examples 1 and 2, the peptides were labeled with biotin. Each of the synthesized peptide domains was biotinylated using EZ-Link Sulfo-NHS-Biotin (Pierce Biotechnology, USA) according to the manufacturer's instruction, and unbound byproducts were removed by ultrafiltration that is a membrane separation method based on a pressure difference. The molecular weights of the synthesized products were measured by mass spectrometry. The synthesized products were analyzed and purified by reverse phase liquid chromatography. For analysis, a C18 column having a diameter of 4.6 mm was used, and 0.1% TFA/H2O and 0.092% TFA/acetonitrile were flushed onto the column at a rate of 1 ml/min with a gradient of 0-60% for 30 minutes. The wavelength of the UV detector used was 220 nm. For purification, a column having a diameter of 2.2 cm was used, and a flow rate of 20 ml/min and the solvent and detection wavelength as described above were used. Only the biotin-labeled peptide fraction was collected, and concentrated using a rotary evaporator to remove the solvent, followed by freeze-drying.
To measure the binding affinity of the zirconia-binding peptide, a binding assay using an avidin-biotin complex was performed. Specifically, one zirconia disc was placed in each well of a 12-well polystyrene plate, and then blocked with a blocking buffer (0.1 M NaHCO3 (pH 8.6), 5 mg/ml BSA, 0.02% NaN3 (optional), filter sterilize) for at least one hour. Next, the blocking buffer was discarded, and each zirconia disc was strongly washed six times or more with a washing buffer (TBS+0.1% [v/v] Tween-20), after which 200 μl of each of the zirconia-binding peptide Zr-BP (SEQ ID NO: 1) of Example 1 and the peptides Zr-BPC (SEQ ID NO: 2), PL1 (SEQ ID NO: 3) and PL2 (SEQ ID NO: 4) of Comparative Examples 1 and 2, which were biotin-labeled, synthesized, separated and purified in Example 3-1, was dispensed to the surface of each zirconia disc at a concentration ranging from 100 nM to 1 μM. Each zirconia disc was incubated at room temperature for 15 hours, and then washed strongly with a washing buffer, and 200 μl of a 1:500 dilution of ExtrAvidin-peroxidase (Cat. #E2886, Sigma-Aldrich, USA) in a blocking buffer was dispensed to the surface of each zirconia disc. Each zirconia disc was incubated at room temperature for 1 hour, and then washed strongly with a washing buffer, after which 200 μl of a substrate solution (2,2′-AZINO-BIS, Cat. #A3219, Sigma-Aldrich, USA) was dispensed to the surface of each zirconia disc and allowed to react at room temperature for 20 minutes so as to develop color. Each zirconia disc was treated with 200 μl of 1% SDS solution to stop the reaction, and the absorbance at 405 nm was measured.

[2] = binding assay using an avidin-biotin complex (maximum binding amount per zirconia disc)
Excerpt: as §1
To examine the maximum binding amount of the zirconia-binding peptide Zr-BP (SEQ ID NO: 1) per unit area of the zirconia disc surface, a binding assay using a avidin-biotin complex was performed. Specifically, one zirconia disc was placed in each well of a 12-well polystyrene plate, and then blocked with a blocking buffer (0.1 M NaHCO3 (pH 8.6), 5 mg/ml BSA, 0.02% NaN3 (optional), filter sterilize) for at least one hour. […] Each zirconia disc was treated with 200 μl of 1% SDS solution to stop the reaction, and the absorbance at 405 nm was measured.

Sequence | absorbance value at 405 nm (binding to the zirconia disc surface) ([1]; FIG. 2) | absorbance value at 405 nm (binding to the zirconia disc surface) ([1]; FIG. 1) | maximum amount of zirconia-binding peptide bound to the surface of one zirconia disc ([2]; back-calculation from molecular weight and dispensing amount, disc diameter 15.5 mm) | concentration showing the maximum absorbance value ([2]; biotin-labeled peptide, 100 nM to 40 mM, 200 μl per disc, room temperature 15 hours, FIG. 3) | zirconia-binding peptide fixed per mm^2 of the zirconia disc surface ([2]; per mm^2, disc diameter 15.5 mm)
IGNSFSFPAVYR (PL1) | do not bind to the zirconia disc surface |  |  |  | 
LRLDVDRAISLL (PL2) | do not bind to the zirconia disc surface |  |  |  | 
VSAAGTKASPAV (Zr-BPC) |  | binding affinity thereof is reduced |  |  | 
VSPFGTKWSPFV (Zr-BP) | higher than those of the peptides (PL1 and PL2) of Comparative Example 2 | higher than that of the peptide Zr-BPC of Comparative Example 1 | 622.8 µg | 2 mM | about 3.3 μg
